From ChEMBL document CHEMBL3627664, “Towards the evaluation in an animal disease model: Fluorinated 17β-HSD1 inhibitors showing strong activity towards both the human and the rat enzyme” (Eur J Med Chem, 2015)
pIC50: −log10 of the molar value.

Molecular target: T1, 17-beta-hydroxysteroid dehydrogenase type 1 (Homo sapiens, UniProt P14061)
T1 sequence (P14061 whole entry): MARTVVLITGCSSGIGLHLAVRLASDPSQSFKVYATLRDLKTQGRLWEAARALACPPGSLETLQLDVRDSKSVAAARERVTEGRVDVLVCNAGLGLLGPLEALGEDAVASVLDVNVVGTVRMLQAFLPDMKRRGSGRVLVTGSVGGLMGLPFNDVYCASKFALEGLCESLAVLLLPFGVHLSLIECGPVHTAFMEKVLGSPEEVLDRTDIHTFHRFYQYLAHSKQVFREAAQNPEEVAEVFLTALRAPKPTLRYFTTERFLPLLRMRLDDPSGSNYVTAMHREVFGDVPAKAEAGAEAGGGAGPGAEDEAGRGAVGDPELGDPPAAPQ

| SMILES | pIC50 |
| --- | --- |
| O=C(c1cccc(O)c1)c1ccc(-c2cccc(O)c2)s1 | 7.16 |
| Cc1ccc(C(=O)c2ccc(-c3cccc(O)c3)s2)cc1O | 7.34 |
| N#Cc1cccc(S(=O)(=O)Nc2cccc(-c3c(O)ccc4cc(-c5cccc(O)c5)ccc34)c2)c1 | 7.68 |
| O=C(c1ccc(F)c(O)c1)c1cc2cc(O)ccc2s1 | 7.05 |
| O=C(c1cccc(O)c1)c1ccc(-c2ccc(NS(=O)(=O)c3ccc(Br)cc3OC(F)(F)F)cc2)s1 | 6.77 |
| N#Cc1cccc(S(=O)(=O)Nc2cccc(-c3ccc(C(=O)c4cccc(O)c4)s3)c2)c1 | 7.64 |
| O=C(Nc1cccc(-c2ccc(C(=O)c3cccc(O)c3)s2)c1)c1cccc(O)c1 | 7.48 |
| N#Cc1ccc(S(=O)(=O)Nc2cccc(-c3ccc(C(=O)c4cccc(O)c4)s3)c2)cc1 | 7.25 |
| COc1cccc(S(=O)(=O)Nc2cccc(-c3ccc(C(=O)c4cccc(O)c4)s3)c2)c1 | 7.46 |
| Cc1ccccc1S(=O)(=O)Nc1cccc(-c2ccc(C(=O)c3cccc(O)c3)s2)c1 | 7.77 |
| Cc1ccc(S(=O)(=O)Nc2cccc(-c3ccc(C(=O)c4cccc(O)c4)s3)c2)cc1 | 7.92 |
| O=C(c1ccc(C(F)(F)F)c(O)c1)c1ccc(-c2cccc(O)c2)s1 | 7.42 |
| O=C(c1cccc(O)c1)c1cc2ccc(O)cc2s1 | 7.92 |
